Laboratory results published in patent publication US20110020801A1, “Carboxylesterase-1 Polymorphisms and Methods of Use Therefor” (priority 2007, published 2011).
Substitutions are numbered along the chain they refer to. “And” between values parts separate entries of the source, which are not always exact repeats. Equal entries are not always repeated.

Assays:
p.Gly143Glu CES1 [1] = molecular target: T1, p.Gly143Glu CES1 (Homo sapiens, UniProt P23141, G143E); test: MPH hydrolysis to ritalinic acid by S9 of cells expressing p.Gly143Glu CES1 (HPLC); format: biochemical; details: S9 500 μg/ml, even at very high S9 concentration (2 mg/ml); 37° C., 2 h
T1 construct: inserting a stop codon after CES1A1 gene to yield the constructs expressing CES1 without V5-His tag; expressed in transfected cells
T1 sequence (P23141 18-567 G143E/Y526T): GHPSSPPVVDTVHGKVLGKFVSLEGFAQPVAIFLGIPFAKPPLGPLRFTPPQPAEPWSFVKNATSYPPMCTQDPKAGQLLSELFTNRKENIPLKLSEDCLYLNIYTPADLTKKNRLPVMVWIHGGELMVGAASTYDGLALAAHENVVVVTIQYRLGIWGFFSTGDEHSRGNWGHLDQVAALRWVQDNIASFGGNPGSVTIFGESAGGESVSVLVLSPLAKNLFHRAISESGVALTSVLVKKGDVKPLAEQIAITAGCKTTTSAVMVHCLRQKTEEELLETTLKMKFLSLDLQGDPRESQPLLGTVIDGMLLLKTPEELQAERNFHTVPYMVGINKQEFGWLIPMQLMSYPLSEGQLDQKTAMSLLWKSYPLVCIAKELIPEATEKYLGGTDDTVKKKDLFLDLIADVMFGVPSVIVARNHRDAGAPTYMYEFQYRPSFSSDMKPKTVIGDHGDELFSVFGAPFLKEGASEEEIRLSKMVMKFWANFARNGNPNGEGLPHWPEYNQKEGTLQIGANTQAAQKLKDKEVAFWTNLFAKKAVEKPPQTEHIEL
Source text: (§1) The desired plasmid was designed such that the recombinant CES1 would be expressed in mammalian cells with a V5-His tag to facilitate detection and purification. Additionally, another plasmid was generated by inserting a stop codon after CES1A1 gene to yield the constructs expressing CES1 without V5-His tag. […] Thus, only untagged CES1 and its associated mutants were used in the enzymatic hydrolysis study. Two constructs of CES1 mutations, p.Gly143Glu and p.Asp260fs, were generated using a site-directed mutagenesis assay. All constructs were subjected to DNA sequencing analysis to confirm that the desired plasmids were obtained. The identified CES1A1 plasmids (WT, p.Gly143Glu, and p.Asp260fs) were co-transfected with pOG44 plasmid at a ratio of 1:10 into Flp-In™-293 cells using […] (Invitrogen, Carlsbad, Calif.). Additionally, the self-ligated pcDNA5/FRT/V5-His-TOPO® vector was included as a vector control. Twenty-four hours after transfection, cells were washed with PBS and fresh complete medium (Dulbecco's modified Eagle's medium containing 10% fetal bovine serum) was added. […]
(§2) After attaining approximately 95% confluence, cells were rinsed and harvested in PBS containing 10 mM HEPES (pH 7.4). […] The protein concentration was determined using a Pierce BCA assay kit (Rockford, Ill.).
(§3) For the study of MPH hydrolysis, the reaction was conducted in 1.5 mL eppendorf tubes with a final S9 concentration of 0.5 mg/mL at a total volume of 100 μL. […] Concentrations of the primary phase I MPH metabolite produced via hydrolysis, ritalinic acid (RA), was determined utilizing an established HPLC method described below.
(§4) Thus, following the enzymatic assay, the values determined for spontaneous PNP and RA hydrolysis were subtracted from the total PNP and RA production. […] All collected data were fit to the Michaelis-Menten equation, and kinetic parameters were calculated using nonlinear regression analysis with Graphpad Prism software (Graphpad Software Inc., San Diego, Calif.) […]

p.Asp260fs CES1 [2] = molecular target: T2, p.Asp260fs CES1 (Homo sapiens, UniProt P23141); test: MPH hydrolysis to ritalinic acid by S9 of cells expressing p.Asp260fs CES1 (HPLC); format: biochemical; details: S9 500 μg/ml, even at very high S9 concentration (2 mg/ml); 37° C., 2 h
T2 construct: a frameshift mutation that alters residues 260-299 and causes early truncation at a premature stop codon; expressed in transfected cells
T2 sequence (P23141 with tags, fused parts or gaps): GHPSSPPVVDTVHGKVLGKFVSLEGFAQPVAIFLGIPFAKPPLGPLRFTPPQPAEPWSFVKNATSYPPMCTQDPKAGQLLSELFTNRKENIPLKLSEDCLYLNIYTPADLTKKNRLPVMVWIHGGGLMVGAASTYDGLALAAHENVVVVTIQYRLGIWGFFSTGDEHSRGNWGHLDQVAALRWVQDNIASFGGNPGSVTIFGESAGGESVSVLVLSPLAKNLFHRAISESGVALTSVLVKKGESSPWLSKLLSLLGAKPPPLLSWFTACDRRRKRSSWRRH
Source text: as §1, §2, §3, §4

[3] = Spontaneous hydrolysis in reaction buffer; format: physicochemical; details: PBS containing 10 mM HEPES, pH 7.4
Method: Thus, following the enzymatic assay, the values determined for spontaneous PNP and RA hydrolysis were subtracted from the total PNP and RA production. […] All collected data were fit to the Michaelis-Menten equation, and kinetic parameters were calculated using nonlinear regression analysis with Graphpad Prism software (Graphpad Software Inc., San Diego, Calif.)

[4] = Hemodynamic measurements after MPH administration in normal volunteers; format: in vivo, human; details: after 0.3 mg/kg MPH
Source text: The inventor considered the set of measures for each endpoint to be a multivariate vector, and assessed the Mahalanobis distance for subject's measurements. The Mahalanobis distance, a measure of distance from a central multivariate mean relative to the variance of the endpoints, is useful for identifying outliers via referral to the F distribution. This analysis assumes no explicit model of time effects on the vital signs, but recognizes the potential correlation between the repeated measures over time on each participant, and tests for simultaneous differences from the mean over the set of time points while controlling the Type I error rate. For each of the four endpoint vectors, the inventor tested the a priori hypothesis that the slow metabolizer's measurements were outliers by comparison to Wilks's critical values (α=0.0125, critical value: 13.8).^13 Because only testing outlier status for this single participant was tested, no Bonferroni corrections were made within participants; however, each test was performed at the Bonferroni-corrected α=0.0125 level to adjust for the four endpoints being tested. There were little differences in plasma MPH concentrations between the slow metabolizer and their study peers during the 0-1.5 h time frame (FIG. 6), which is likely due to a delay in tablet disintegration, dissolution and absorption. After this initial period MPH is subject to first-pass metabolism and hCES1 mediated stereoselective hydrolysis and the two concentration vs. time curves rapidly diverge from one another (FIGS. 2-3). Therefore, based on this finding and a visual examination of the data it was decided that a second analysis which excluded measurements taken during the 0-1.5 hr time points would be more appropriate.

[5] = Pharmacokinetic study of orally administered racemic MPH in normal volunteers; format: in vivo, human; details: single oral 0.3 mg/kg racemic MPH, plasma
Method: Analysis of Pharmacokinetic, Hemodynamic, and Statistical Data. Standard pharmacokinetic analyses were applied to the MPH data using WinNonLin software (Pharsight, Mountainview, Calif.) and are described in a previous publication.^10 The AUC, Cmax, and t1/2 were analyzed using the Extreme Studentized Deviate (ESD) single-outlier procedure^12 to determine whether the parameter measurements for the slow metabolizer constituted true statistical outliers. For each parameter, the ESD procedure confirmed the measurement as an outlier at the p<0.01 level. Because this procedure is known to be conservative, the data from the aberrant metabolizer were reassessed using a similar procedure with respect to the normal participants only.

p.Asp260fs CES1 [6] = molecular target: T2, p.Asp260fs CES1; test: Oseltamivir phosphate hydrolysis by p.Asp260fs hCES1 S9 (HPLC); format: biochemical; details: measured by conversion to OC
p.Gly143Glu CES1 [7] = molecular target: T1, p.Gly143Glu CES1; test: Oseltamivir phosphate hydrolysis by p.Gly143Glu hCES1 S9 (HPLC); format: biochemical; details: compared to WT enzyme
[8] = cited from earlier work
hCES1 = molecular target: T3, hCES1 (Homo sapiens, UniProt P23141); details: in vitro; cited from earlier work
T3 sequence (P23141 18-567): T1 sequence (P23141 18-567 G143E/Y526T) with E126G, T509Y

WT CES1 = molecular target: T4, WT CES1 (Homo sapiens, UniProt P23141); test: MPH hydrolysis to ritalinic acid by S9 of cells expressing WT CES1 (HPLC); format: biochemical; details: S9 0.5 mg/mL, 37° C., 2 hours, mean ± S.D. (n = 3)
T4 construct: inserting a stop codon after CES1A1 gene to yield the constructs expressing CES1 without V5-His tag; expressed in transfected cells
T4 sequence (P23141 18-567): T1 sequence (P23141 18-567 G143E/Y526T) with E126G, T509Y
Source text: as §1, §2, §3, §4

COC(=O)C(c1ccccc1)C1CCCCN1 (racemic) [MPH, methylphenidate]
catalytic activity towards MPH hydrolysis (p.Gly143Glu CES1 [1]): too low to be determined
catalytic activity towards MPH hydrolysis (p.Asp260fs CES1 [2]): too low to be determined
stability in reaction buffer [3]: spontaneously hydrolyzed
Diastolic Blood Pressure, Maximum Value, Mean (SD) ([4]; 19 study peers): 68 (8)
Mean Arterial Pressure, Maximum Value, Mean (SD) ([4]; 19 study peers): 85 (8)
Pulse, Maximum Value, Mean (SD) ([4]; 19 study peers): 74 (11)
Systolic Blood Pressure, Maximum Value, Mean (SD) ([4]; 19 study peers): 120 (10)
Diastolic Blood Pressure, Maximum Value, Outlier ([4]; slow metabolizer): 78
Mean Arterial Pressure, Maximum Value, Outlier ([4]; slow metabolizer): 97
Pulse, Maximum Value, Outlier ([4]; slow metabolizer): 93
Systolic Blood Pressure, Maximum Value, Outlier ([4]; slow metabolizer): 138
Cmax of slow metabolizer relative to the mean of the other subjects [5]: approximately 7 fold

CCOC(=O)C1=C[C@@H](OC(CC)CC)[C@H](NC(C)=O)[C@@H](N)C1 [OP, oseltamivir phosphate]
enzymatic activity on oseltamivir hydrolysis (p.Asp260fs CES1 [6]): did not result in any detectable hydrolysis
enzymatic activity on oseltamivir hydrolysis (p.Asp260fs CES1 [6]; listed as oseltamivir): No catalytic activity
enzymatic activity on oseltamivir hydrolysis (p.Gly143Glu CES1 [7]): Profoundly decreased enzymatic activity

COC(=O)[C@@H](c1ccccc1)[C@@H]1CCCCN1 [l-MPH, l-threo-(S,S)-methylphenidate]
fraction of the total circulating blood concentrations of MPH ([8]; racemic MPH, enantioselective analytical methods): 1-15%
blood concentration relative to that of d-MPH ([8]; studies that measured both isomers): 1-15%
AUCinf relative to that of d-MPH ([8]; various oral formulations): 1%-15%
catalytic activity towards MPH hydrolysis (p.Gly143Glu CES1 [1]): failed to show any hydrolytic activity
catalytic activity towards MPH hydrolysis (p.Asp260fs CES1 [2]): failed to show any hydrolytic activity
catalytic efficiency of hCES1 relative to d-MPH (hCES1): up to 6 fold
Km (WT CES1): 776 ± 162 µM
Vmax (WT CES1): 1701.0 pmole/min/mg protein and 1701.0 ± 196.5 pmole/min/mg protein
Cmax of slow metabolizer relative to the mean of the other subjects [5]: approximately 100 fold
Cmax ([5]; slow metabolizer): 62 ng/mL
